Results on 15 compounds are retold here after US6858638B2, “Substituted indazoles, compositions containing them, method of production and use” (Aventis Pharma S.A., priority 2002, dated 2005).

Type in all cases: biochemical
For one assay, the target named is T1, human FAK (Homo sapiens, UniProt Q05397).
T1 construct: The complete cDNA of human FAK; made in house; host or cells: baculovirus expression system (vector pFastBac HTc)
In words: FAK autophosphorylation inhibition, time resolved fluorescence (HTRF) assay. Conditions: 10 μM (values without asterisk); for inhibition at 10 µM: read-out: FAK % inhib at 10 μM. In a few lines:
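His-tagged full-length human FAK from baculovirus (6.6 µg/ml) self-phosphorylates with 15 µM ATP in HEPES pH 7.2, MgCl2, vanadate, 1 h at 37 °C. HTRF detection (Eu-anti-phosphotyrosine / XL665-anti-His), 665/620 nm ratio; % inhibition vs untreated control, duplicate mean.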
(In general: In TR-FRET formats the signal depends on donor and acceptor labels being close together.)

The target in the next assay is T2, Aurora2 kinase (Homo sapiens, UniProt O14965).
T2 construct: A complete recombinant Aurora2 enzyme; His tag (N); made in house; host or cells: E. coli
T2 sequence (O14965 1-403): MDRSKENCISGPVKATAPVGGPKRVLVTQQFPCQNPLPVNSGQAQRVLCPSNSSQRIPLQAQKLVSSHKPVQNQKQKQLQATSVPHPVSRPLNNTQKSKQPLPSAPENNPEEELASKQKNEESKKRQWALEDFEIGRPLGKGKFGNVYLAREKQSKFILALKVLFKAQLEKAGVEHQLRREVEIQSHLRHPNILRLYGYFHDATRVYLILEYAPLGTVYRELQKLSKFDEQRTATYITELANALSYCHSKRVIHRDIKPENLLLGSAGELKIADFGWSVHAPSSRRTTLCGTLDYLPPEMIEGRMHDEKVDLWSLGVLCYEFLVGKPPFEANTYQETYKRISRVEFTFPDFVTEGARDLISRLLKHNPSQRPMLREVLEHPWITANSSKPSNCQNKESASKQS
Briefly: Aurora2 kinase radioactivity scintillation assay using nickel chelate (NuMA substrate). To be noted: 10 μM; for inhibition at 10 µM: read-out: Aurora2 % inhib at 10 μM. Here is the method:
The inhibitory effect of compounds with respect to the Aurora2 kinase is determined with a radioactivity scintillation assay using nickel chelate.
A complete recombinant Aurora2 enzyme, the N-terminal end of which was labeled with histidine, was expressed in E. coli and purified to a quality close to homogeneity.
The C-terminal fragment (Q1687-H2101) of a NuMA (Nuclear protein that associates with the Mitotic Apparatus) expressed in E. coli, and the N-terminal end of which was labeled with histidine, was purified by nickel chelate chromatography and used as substrate in the Aurora2 kinase assay. In order to determine the kinase activity, the NuMA substrate is equilibrated by chromatography on a Pharmacia PD10 column, in a buffer (50 mM Tris HCl, pH7.5, 50 mM NaCl, 10 mM MgCl2) to which 10% (v/v) of glycerol and 0.05% (w/v) of NP40 have been added.
The kinase acivitity of Aurora2 is measured by scintillation with nickel chelate (New England Nuclear, model SMP107). Each well contains 100 μl of the following solution: 0.02 μM of Aurora2; 0.5 μM of NuMA substrate; 1 μM of ATP to which 0.5 μCi of ATP-[^33P] has been added. The solutions are incubated for 30 minutes at 37° C. The assay buffer is then removed and the wells are rinsed twice with 300 μl of kinase buffer. The radioactivity is measured in each well using a Packard Model Top Count NXT device.
The background noise is deduced from the measurement of radioactivity by measuring, in duplicate, in wells containing the radioactive ATP alone containing buffered kinase treated in the same way as the other samples.
The activity of the control is determined by measuring, in duplicate, the radioactivity in the complete assay mixture (ATP, Aurora2 and the NuMA substrate) in the absence of test compound.
The inhibition of the Aurora2 with a compound of the invention is expressed as percentage inhibition of the control activity in the absence of test compound. Staurosporine is added to each plate as an inhibition control.

The target in the next assay is T3, human KDR enzyme (Homo sapiens, UniProt P35968).
T3 construct: The cytoplasmic domain of the human KDR enzyme; GST; made in house; host or cells: SF21 insect cells (baculovirus)
T3 sequence (P35968 786-1356 limits assumed): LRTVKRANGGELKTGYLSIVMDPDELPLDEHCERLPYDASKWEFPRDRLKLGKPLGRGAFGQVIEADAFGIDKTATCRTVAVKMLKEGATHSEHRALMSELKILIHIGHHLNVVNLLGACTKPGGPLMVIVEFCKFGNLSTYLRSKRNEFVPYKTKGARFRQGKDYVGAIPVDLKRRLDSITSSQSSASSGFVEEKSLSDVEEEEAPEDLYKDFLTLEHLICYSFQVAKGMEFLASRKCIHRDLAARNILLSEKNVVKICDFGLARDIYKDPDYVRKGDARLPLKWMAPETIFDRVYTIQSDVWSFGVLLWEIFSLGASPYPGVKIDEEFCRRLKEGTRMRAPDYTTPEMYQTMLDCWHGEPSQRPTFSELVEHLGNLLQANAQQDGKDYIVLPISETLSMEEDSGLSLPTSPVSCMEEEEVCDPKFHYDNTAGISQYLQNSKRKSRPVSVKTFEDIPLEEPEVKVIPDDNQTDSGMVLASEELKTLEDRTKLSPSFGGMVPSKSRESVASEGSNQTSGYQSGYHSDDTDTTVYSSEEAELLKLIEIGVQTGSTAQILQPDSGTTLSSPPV
Briefly: KDR substrate (PLCγ) phosphorylation, scintillation assay. To be noted: 10 μM; for inhibition at 10 µM: read-out: KDR % inhib at 10 μM. An outline of the steps: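 GST-fused human KDR cytoplasmic domain from SF21 cells (about 60% pure, 100 ng) phosphorylated 2 μg of GST-PLCγ SH2-SH3 fragment. The trigger solution held γ33P-ATP with 2 μM cold ATP, in MOPS buffer pH 7.2 with Mg2+, Mn2+, vanadate and NaF. Reactions ran 1 h at 37 °C, were stopped with EDTA and counted by scintillation; results are % inhibition versus the no-compound control.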

Assay [1] addresses T4, human IGF1R cytoplasmic domain (Homo sapiens, UniProt P08069).
T4 construct: The human IGF1R cytoplasmic domain was cloned; made in house; host or cells: SF21 insect cells (baculovirus)
Briefly: IGF1R autophosphorylation inhibition, time resolved fluorescence (HTRF) assay. Conditions: 10 μM; for inhibition at 10 µM: read-out: IGF1R % inhib at 10 μM. Here is the method: The inhibitory activity of the compounds on IGF1R is determined by measuring the inhibition of the autophosphorylation of the enzyme using a time resolved fluorescence (HTRF) assay.
The human IGF1R cytoplasmic domain was cloned, as a fusion with glutathione S-transferase (GST), into the baculovirus expression vector pFastBac-GST. The protein was expressed in SF21 cells and purified to approximately 80% homogeneity.
The kinase activity was determined by incubating the enzyme with various concentrations of test compound in a 50 mM Hepes buffer, pH 7.5, containing 5 mM MnCl2, 50 mM NaCl, 3% glycerol, 0.025% Tween […] of ATP. The enzyme reaction is stopped by adding 100 mM Hepes buffer, pH 7.0, containing 0.4 M KF, 133 mM EDTA and 0.1% BSA containing an anti-GST antibody labeled with XL665 and an antiphosphotyrosine antibody conjugated to europium cryptate (Eu-K). The characteristics of the two fluorophores, XL-665 and Eu-K, are available in G. Mathis et al., Anticancer Research, 1997, 17, pages 3011-3014. The transfer of energy from the excited europium cryptate to the acceptor XL665 is proportional to the degree of autophosphorylation of IGF1R. The long-lived signal specific for XL-665 is measured in a Victor analyzer plate counter (Perkin-elmer). The inhibition of the IGF1R autophosphorylation activity with compounds of the invention is expressed as percentage inhibition compared to a control whose activity is measured in the absence of test compound.

T1 sequence (Q05397 whole entry): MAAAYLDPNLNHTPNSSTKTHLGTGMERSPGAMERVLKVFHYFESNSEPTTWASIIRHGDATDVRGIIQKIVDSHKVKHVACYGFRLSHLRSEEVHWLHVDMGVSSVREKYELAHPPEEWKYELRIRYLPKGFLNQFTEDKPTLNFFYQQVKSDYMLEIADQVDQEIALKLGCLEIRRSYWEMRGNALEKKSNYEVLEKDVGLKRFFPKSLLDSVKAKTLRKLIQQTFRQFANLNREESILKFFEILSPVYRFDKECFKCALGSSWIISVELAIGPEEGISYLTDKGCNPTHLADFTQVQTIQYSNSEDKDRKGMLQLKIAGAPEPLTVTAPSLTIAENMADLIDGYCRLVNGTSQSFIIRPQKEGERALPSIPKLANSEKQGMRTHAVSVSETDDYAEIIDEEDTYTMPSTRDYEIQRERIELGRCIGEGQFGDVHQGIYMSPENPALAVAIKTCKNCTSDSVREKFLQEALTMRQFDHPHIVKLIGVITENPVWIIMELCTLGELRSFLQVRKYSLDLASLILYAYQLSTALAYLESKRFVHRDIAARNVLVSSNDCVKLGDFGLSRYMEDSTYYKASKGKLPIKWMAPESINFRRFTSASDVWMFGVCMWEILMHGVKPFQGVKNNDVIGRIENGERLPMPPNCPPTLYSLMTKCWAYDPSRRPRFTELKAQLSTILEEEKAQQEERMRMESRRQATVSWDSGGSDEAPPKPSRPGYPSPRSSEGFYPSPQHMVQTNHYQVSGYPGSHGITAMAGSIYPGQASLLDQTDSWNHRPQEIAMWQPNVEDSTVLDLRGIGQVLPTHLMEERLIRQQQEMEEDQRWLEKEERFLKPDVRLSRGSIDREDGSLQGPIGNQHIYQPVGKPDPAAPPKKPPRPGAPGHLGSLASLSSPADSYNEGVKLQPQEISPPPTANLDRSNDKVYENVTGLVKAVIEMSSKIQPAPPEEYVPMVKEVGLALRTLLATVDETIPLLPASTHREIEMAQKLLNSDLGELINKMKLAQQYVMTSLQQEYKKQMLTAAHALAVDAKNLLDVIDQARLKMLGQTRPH
T4 sequence (P08069 960-1367 limits assumed): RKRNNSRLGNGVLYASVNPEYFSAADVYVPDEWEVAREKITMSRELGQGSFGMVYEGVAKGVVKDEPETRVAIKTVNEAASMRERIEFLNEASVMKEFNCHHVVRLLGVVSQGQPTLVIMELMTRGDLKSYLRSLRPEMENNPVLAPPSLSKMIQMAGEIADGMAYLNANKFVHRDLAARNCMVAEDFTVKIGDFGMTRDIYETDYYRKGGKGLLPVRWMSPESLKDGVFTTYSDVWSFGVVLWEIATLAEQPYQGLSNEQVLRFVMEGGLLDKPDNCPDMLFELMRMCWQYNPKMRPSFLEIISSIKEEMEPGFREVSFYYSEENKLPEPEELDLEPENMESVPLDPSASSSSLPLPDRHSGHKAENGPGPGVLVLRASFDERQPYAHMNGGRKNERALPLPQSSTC

As for `CS(=O)(=O)c1ccccc1S(=O)(=O)Nc1ccc2[nH]nc(C(=O)NC3CCCCC3)c2c1` [Example 29, N-Cyclohexyl-5-(2-methylsulfonylbenzenesulfonylamino)-1H-indazole-3-carboxamide], the inhibition at 10 µM worked out at 0% at human FAK, 80% at Aurora2 kinase, 8% at human KDR enzyme and 96% in assay [1].
For `O=S(=O)(Nc1ccc2[nH]nc(-c3ccc(O)cc3)c2c1)c1ccccc1` [Example 34, N-[3-(4-Hydroxyphenyl)-1H-indazol-5-yl]benzenesulfonamide], in that order: 87%, 100%, 96% and 89%.
Consider `CS(=O)(=O)c1ccccc1S(=O)(=O)Nc1ccc2[nH]nc(-c3ccc(O)cc3)c2c1` [Example 35, N-[3-(4-Hydroxyphenyl)-1H-indazol-5-yl]-2-methylsulfonylbenzenesulfonamide], for which the “FAK % inhib at 10 μM” value on human FAK is 97%. For the same compound, at Aurora2 kinase, the “Aurora2 % inhib at 10 μM” value is given as 94%. On human KDR enzyme, the “KDR % inhib at 10 μM” value is 80%. Also, the “IGF1R % inhib at 10 μM” value in assay [1] is given as 94%.
`CC(=O)Nc1n[nH]c2ccc(NS(=O)(=O)c3ccccc3S(C)(=O)=O)cc12` [Example 43, N-[5-(2-Methylsulfonylbenzenesulfonylamino)-1H-indazol-3-yl)-acetamide]: the inhibition at 10 µM was 83% on human FAK, 85% at Aurora2 kinase, 25% on human KDR enzyme and 96% in assay [1].
For `CC(=O)Nc1n[nH]c2ccc(NS(=O)(=O)c3cc(F)cc(F)c3)cc12` [Example 44, N-[5-(3,5-Difluorobenzenesulfonylamino)-1H-indazol-3-yl]acetamide], the values for the inhibition at 10 µM (at human FAK; at human KDR enzyme; in assay [1]) were 95%, 37% and 82%, respectively.
Regarding `CS(=O)(=O)c1ccccc1S(=O)(=O)Nc1ccc2[nH]nc(NC(=O)c3ccccc3)c2c1` [Example 45, N-[5-(2-Methylsulfonylbenzenesulfonylamino)-1H-indazol-3-yl]benzamide], the inhibition at 10 µM stood at 100% on human FAK, 95% on Aurora2 kinase, 55% on human KDR enzyme and 95% in assay [1].
As for `O=C(Nc1n[nH]c2ccc(NS(=O)(=O)c3cc(F)cc(F)c3)cc12)c1ccccc1` [Example 46, N-[5-(3,5-Difluorobenzenesulfonylamino)-1H-indazol-3-yl]benzamide], the inhibition at 10 µM on human FAK is 90%; on Aurora2 kinase, 95%; at human KDR enzyme, 82%; in assay [1], 82%.
For the compound `CS(=O)(=O)c1ccccc1S(=O)(=O)Nc1ccc2[nH]nc(-c3ccccc3N)c2c1` [Example 49, N-[3-(2-Aminophenyl)-1H-indazol-5-yl]-2-methylsulfonylbenzenesulfonamide], the inhibition at 10 µM at human FAK worked out at 40%; on Aurora2 kinase, 17%; at human KDR enzyme it was 18%; in assay [1], 50%.
With `CS(=O)(=O)c1ccccc1S(=O)(=O)Nc1ccc2[nH]nc(-c3cc4cccnc4[nH]3)c2c1` [Example 57, 2-Methylsulfonyl-N-[3-(1H-pyrrolo[2,3-b]pyridin-2-yl)-1H-indazol-5-yl]benzenesulfonamide], the inhibition at 10 µM at human FAK came to 48%; on Aurora2 kinase, 53%; at human KDR enzyme, 22%; in assay [1], 0%.
Turning to `COc1ccc2[nH]c(-c3n[nH]c4ccc(NS(=O)(=O)c5ccccc5S(C)(=O)=O)cc34)cc2c1` [Example 58, 2-Methylsulfonyl-N-[3-(5-methoxy-1H-indol-2-yl)-1H-indazol-5-yl]benzenesulfonamide], the inhibition at 10 µM at human FAK amounted to 97%; at Aurora2 kinase, 100%; on human KDR enzyme, 97%; in assay [1] it was 100%.
Regarding `CS(=O)(=O)c1ccccc1S(=O)(=O)Nc1ccc2[nH]nc(-c3cccnc3)c2c1` [Example 59, 2-Methylsulfonyl-N-(3-pyridin-3-yl-1H-indazol-5-yl)benzenesulfonamide], the inhibition at 10 µM on human FAK is 95%; on Aurora2 kinase it was 100%; at human KDR enzyme it was 40%; in assay [1], 88%.
In the case of `CS(=O)(=O)c1ccccc1S(=O)(=O)Nc1ccc2[nH]nc(-c3ccc(C(=O)O)cc3)c2c1` [Example 69, 4-[5-(2-Methylsulfonylbenzenesulfonamino)-1H-indazol-3-yl]benzoic acid], the inhibition at 10 µM worked out at 98% at human FAK, 99% at Aurora2 kinase, 73% on human KDR enzyme and 61% in assay [1].
As to `CS(=O)(=O)c1ccccc1S(=O)(=O)Nc1ccc2[nH]nc(/C=C/c3ccccc3)c2c1` [Example 78, 2-Methylsulfonyl-N-[3-((E)-styryl)-1H-indazol-5-yl]benzenesulfonamide], the inhibition at 10 µM on human FAK came out at 94%; at Aurora2 kinase, 100%; on human KDR enzyme, 97%; in assay [1] it was 96%.
Consider `O=S(=O)(Nc1ccc2[nH]nc(-c3cc4ccccc4[nH]3)c2c1)c1ccccc1` [Example 82, N-[3-(1H-Indol-2-yl)-1H-indazol-5-yl]benzenesulfonamide], for which the inhibition at 10 µM stood at 93% at human FAK, 100% on Aurora2 kinase, 100% at human KDR enzyme and 100% in assay [1].
For `CS(=O)(=O)c1ccccc1S(=O)(=O)Nc1ccc2[nH]nc(Nc3ccccc3)c2c1` [Example 83, 2-Methylsulfonyl-N-(3-phenylamino-1H-indazol-5-yl)-benzenesulfonamide], the inhibition at 10 µM on human FAK came to 92%; on Aurora2 kinase, 93%; at human KDR enzyme it was 60%; in assay [1], 100%.
